Test results as given in patent US20120165403A1, “METHODS OF INHIBITING THE ACTIVITY OF HSP90 AND/OR ARYL HYDROCARBON RECEPTOR” (UNIVERSITY OF ROCHESTER, priority 2004, published 2012).

What was measured:
hsp90 [1] = test: Affinity chromatography on EGCG-conjugated Sepharose, hsp90 inherent to RRL; type: binding, rabbit; conditions: immunoblotting
Method: EGCG was conjugated to cyanogen bromide (CNBr)-activated Sepharose (Sigma). EGCG (2.5 mg) was dissolved in 5004 coupling buffer (0.1M NaHCO3, 0.5M NaCl, pH 6.0). CNBr-activated Sepharose was swelled and washed in 1 mM HCl on a sintered glass filter followed by a wash with coupling buffer. CNBr-activated Sepharose beads were added to the EGCG in coupling buffer at a final concentration of 5 mg EGCG/ml of wet gel. The coupling solution containing EGCG and Sepharose was mixed end-over end at 4° C. overnight. Remaining active groups were blocked for 2 h at room temperature in Tris-HCl (0.1M, pH 8). EGCG-conjugated Sepharose was washed with three cycles of alternating pH wash buffers (Buffer 1: 0.1M acetate, 0.5M NaCl, pH4.0; Buffer 2: 0.1M Tris-HCl, 0.5M NaCl, pH 8.0). […]
Approximately 25 μL of 1:4 diluted RRL containing ^35S-labeled in vitro transcribed protein was incubated with 40 μL of either unconjugated or EGCG-conjugated Sepharose beads in binding buffer (50% slurry). […] Protein was transferred to PVDF membrane (Millipore, Bedford, Mass.). ^35S-labeled AhR, ARNT, p23, XAP2, and hsp90 truncated and point mutants were detected by Phosphoimaging. Hsp90 inherent to RRL was detected by immunoblotting using an anti-hsp90 monoclonal antibody (Stressgen Victoria, BC Canada) followed by secondary antibody coupled to horseradish peroxidase (Jackson Immuno Research, West Grove, Pa.). […]

hsp90 [2] = test: Sucrose density gradient sedimentation of hsp90 in Hepa cytosol; type: biochemical, mouse; conditions: 2 h, 200 μM EGCG or 10 nM TCDD
Method: Competitive binding of EGCG was analyzed by velocity sedimentation on sucrose gradients in a vertical tube rotor (Tsui et al., Can. J. Physiol. Pharmacol 59:927-931 (1981); Jensen et al., Toxicol. Sci. 64:41-56 (2001), which are hereby incorporated by reference in their entirety). Hepa cytosol (100 μl of 2.5 mg/ml) or BP^rCl cytosol was incubated for two hours at room temperature with either 3 nM ^3H-TCDD, 0.5 nM ^3H-TCDD, or 5 nM ^3H-BNF, in the presence of DMSO, 150-fold excess TCDF, 1 μM 3M4NF, or EGCG. […] For competitive binding assays, fractions were assayed for radioactivity with ScintiVerse (Fisher Scientific, Fair Lawn, N.J.). […] For AhR and hsp90 density analysis, protein contained within an aliquot (200 of each fraction was separated by SDS-PAGE (7.5% acrylamide resolving gel) and transferred to PVDF membranes. Membranes were probed with antibodies recognizing AhR (Biomol) or hsp90 (Stressgen, Victoria, BC Canada). A crude estimate of the sedimentation coefficient for the EGCG shifted AhR complex was calculated by the method of Martin and Ames (Martin et al., J. Biol. Chem. 236:1372-1379 (1961), which is hereby incorporated by reference in its entirety) relative to the ^14C-BSA (4.4S) standard.

hsp90 [3] = test: Affinity chromatography on EGCG-conjugated Sepharose, Hepa cytosol hsp90; type: binding, mouse
purified human hsp90 = target: T1, purified human hsp90 (Homo sapiens, UniProt P07900); test: Affinity chromatography on EGCG-conjugated Sepharose, purified hsp90; type: binding; conditions: purified hsp90 alone
T1 construct: purchased Stressgen
Method: EGCG was conjugated to cyanogen bromide (CNBr)-activated Sepharose (Sigma). EGCG (2.5 mg) was dissolved in 5004 coupling buffer (0.1M NaHCO3, 0.5M NaCl, pH 6.0). CNBr-activated Sepharose was swelled and washed in 1 mM HCl on a sintered glass filter followed by a wash with coupling buffer. CNBr-activated Sepharose beads were added to the EGCG in coupling buffer at a final concentration of 5 mg EGCG/ml of wet gel. The coupling solution containing EGCG and Sepharose was mixed end-over end at 4° C. overnight. Remaining active groups were blocked for 2 h at room temperature in Tris-HCl (0.1M, pH 8). EGCG-conjugated Sepharose was washed with three cycles of alternating pH wash buffers (Buffer 1: 0.1M acetate, 0.5M NaCl, pH4.0; Buffer 2: 0.1M Tris-HCl, 0.5M NaCl, pH 8.0). EGCG-conjugated beads were then equilibrated in binding buffer (0.05M Tris-HCl, 0.15M sodium chloride, pH 7.5). The control unconjugated CNBr-activated Sepharose beads were prepared as above in the absence of EGCG.
For affinity chromatography using histidine-purified XAP2 and purified human hsp90 (Stressgen), 30 μl of unconjugated or EGCG-conjugated Sepharose were incubated for 1 h at room temperature with either 1:4 diluted ^35S-XAP2 in RRL, 30 μl of histidine purified ^35S-XAP2, 0.6 μg of purified hsp90, or 20 μl of histidine purified ^35S-XAP2 in the presence of 0.6 μg of purified hsp90. […]

O=C(O[C@@H]1Cc2c(O)cc(O)cc2O[C@@H]1c1cc(O)c(O)c(O)c1)c1cc(O)c(O)c(O)c1 [EGCG, epigallocatechin gallate]
binding of hsp90 to EGCG-Sepharose (hsp90 [1]): eluted from EGCG-Sepharose | effect on the sedimentation pattern of hsp90 (hsp90 [2]): dramatically altered the sedimentation pattern of hsp90 | binding of hsp90 to EGCG-Sepharose (hsp90 [3]): also eluted from EGCG-Sepharose | binding of purified hsp90 to EGCG-Sepharose (purified human hsp90): eluted specifically from EGCG-Sepharose
